Consider 14 compounds from article PMC7823860, “Flavonoid Glycosides with a Triazole Moiety for Marine Antifouling Applications: Synthesis and Biological Activity Evaluation” (Marine Drugs, 2020).

Structures are written as SMILES. Several values for one entry are separate records, joined by “and”; a condition that tells them apart may be missing. Equal values may be shown once. Read-outs that look alike come from different tables or passages of the source.

Series [1] can be described thus: Mussel (Mytilus galloprovincialis) larvae anti-settlement bioassay. The series is classed as in vivo. As to conditions: in vivo, mussel plantigrade larvae, read-out: LC50 (median lethal dose). On the procedure:
(§1) Mussel (Mytilus galloprovincialis) plantigrades were collected in juvenile aggregates during low neap tides at Memória beach, Matosinhos, Portugal (41°13′59″ N; 8°43′28″ W). In laboratory, mussel plantigrade larvae (0.5–2 mm) were isolated in a binocular magnifier (Olympus SZX2-ILLT, Tokyo, Japan) to a petri dish with filtered seawater, and those with functional foot and competent exploring behaviour were selected for the bioassays. The flavonoids were screened at 50 µM in 24-well microplates with 4 well replicates per condition and 5 larvae per well, for 15 h, in the darkness at 18 ± 1 °C, following Almeida et al. (2015). Test solutions were obtained by dilution of the compounds stock solutions (50 mM) in DMSO and prepared with filtered seawater. All bioassays included a negative control with DMSO and a positive control with CuSO4, a potent AF agent. After the exposure period, the anti-settlement activity was determined by the presence/absence of attached byssal threads produced by each individual larvae.
(§2) All compounds that caused more than 60% of settlement inhibition (≤40% of settlement) in the screening bioassay were considered active and selected for the determination of the semi-maximum response concentration that inhibited 50% of larval settlement (EC50), at compounds concentrations of 3.12, 6.25, 12.5, 25, 50, 100, 200 μM.
(§3) Datasets from anti-settlement, antibacterial and anti-microalgal bioassay, and determination of AChE and Tyr activities, were analysed by one-way analysis of variance (ANOVA) followed by a multi-comparisons Dunnett’s test against negative control (p < 0.05). For the AF bioassays, the half maximum response concentration (EC50) values for each compound, when applicable, were calculated using Probit regression analysis. Significance was considered at p < 0.01, and 95% lower and upper confidence limits (95%LCL; UCL). The software IBM SPSS Statistics 26 (Armonk, New York, USA) was used for statistical analysis.

The subject of series [2] is Mytilus galloprovincialis plantigrade larvae. The description is as above. The series is classed as in vivo. The settings on record: 15 h, 15 h exposure, read-out: EC50 (minimum concentration that inhibited 50% of larval settlement). On the procedure:
as §1, §2, §3

For a further series, the system named is Navicula sp. Put plainly: Biofilm-forming marine diatom growth inhibition. The series is classed as cell-based. The settings on record: 10 days. On the procedure:
The anti-microalgal activity of the most promising compounds was also evaluated against a benthic marine diatom, Navicula sp., purchased from the (Telde, Gran Canaria) Spanish Collection of Algae (BEA). Diatom cells were inoculated in f/2 medium (Sigma) at an initial concentration of 2–4 × 10^6 cells mL^−1 and grown in 96-well flat-bottom microtiter plates for 10 days at 20 °C. Navicula growth inhibition in the presence of each compound at 15 μM was determined in quadruplicate and quantified based on the difference in cell densities among the treatments, and cells were counted using a Neubauer counting chamber. A positive control with cycloheximide (3.55 μM) and a negative control with f/2 medium 0.1% DMSO were included.
as §3

Series [3] concerns the target T1, Electrophorus electric AChE Type V-S (Electrophorus electricus, UniProt O42275).
T1 construct: purchased SIGMA C2888
Put plainly: In vitro acetylcholinesterase (AChE) activity (Ellman). The series is classed as biochemical. The settings on record: 25, 50 and 100 μM; versus negative control, p < 0.05. On the procedure: (§4) The ability of the most promising compounds to inhibit AChE and Tyr was tested to assess their potential mode of action related with neurotransmission disruption or impairment of adhesive metabolism pathways, respectively.
AChE activity was evaluated using Electrophorus electric AChE Type V-S (SIGMA C2888, E.C. 3.1.1.7), according to Ellman et al. (1961) with some modifications. Reaction solution containing 1 M phosphate buffer pH 7.2, 10 mM dithiobisnitrobenzoate (DTNB) (acid dithiobisnitrobenzoate and sodium hydrogen carbonate in phosphate buffer) and 0.075 M […] was added to pure AChE enzyme (0.25 U/mL) and each test compound (final concentration of 25, 50 and 100 μM, 1% DMSO) in quadruplicate. All tests included a positive control with eserine (200 μM, water) and a negative control with 1% DMSO in water. The optical density was measured at 412 nm in a microplate reader (Biotek Synergy HT, Winooski, Vermont, USA) during 5 min at 25 °C.
A general note: DTNB colorimetry detects thiols as they appear.

The subject of series [4] is Artemia salina nauplii. The series is described as follows: Artemia salina nauplii lethality (ecotoxicity) bioassay. The series is classed as in vivo. As to conditions: 25 and 50 μM, 48 h of exposure. On the procedure:
The brine shrimp (Artemia salina) nauplii lethality test was used to determine the toxicity of promising AF compounds to non-target organisms. Artemia salina eggs were allowed to hatch in seawater for 48 h at 25 °C. Bioassays were performed in 96-wells microplates with 15–20 nauplii per well and 200 μL of the compounds test solution. Compounds were tested at final concentrations of 25 and 50 μM (filtered seawater with 1% DMSO). All tests included K2Cr2O7 (13.6 μM) as positive control and DMSO (1%) as negative control. Bioassays were run in the dark at 25 °C, and the percentage of mortality was determined after 48 h of exposure.

The test system of series [5] is Roseobacter litoralis CECT 5395. The series is described as follows: Biofilm-forming marine bacteria growth inhibition. The series is classed as cell-based. The settings on record: 15 µM, 24 h, Dunnett test p < 0.05. On the procedure:
For anti-bacterial screening, five strains of marine biofilm-forming bacteria from the Spanish Type Culture Collection (CECT): Cobetia marina CECT 4278, Vibrio harveyi CECT 525, Halomonas aquamarina CECT 5000, Pseudoalteromonas atlantica CECT 570, and Roseobacter litoralis CECT 5395 were used. Bacteria were inoculated and incubated for 24 h at 26 °C in marine broth (Difco) at an initial density of 0.1 (OD600) in 96 well flat-bottom microtiter plates and exposed to the test compounds at 15 μM. Test solutions were obtained by dilution of the compounds stock solutions (50 mM) in DMSO. Bacterial growth inhibition in the presence of the compounds was determined in quadruplicate at 600 nm using a microplate reader (Biotek Synergy HT, Vermont, USA). Negative and positive controls used were a solution of marine broth with DMSO, and a solution of marine broth with penicillin–streptomycin–neomycin, respectively. […]
Datasets from anti-settlement, antibacterial and anti-microalgal bioassay, and determination of AChE and Tyr activities, were analysed by one-way analysis of variance (ANOVA) followed by a multi-comparisons Dunnett’s test against negative control (p < 0.05). For the AF bioassays, the half maximum response concentration (EC50) values for each compound, when applicable, were calculated using Probit regression analysis. […]

The next series relates to Agaricus bisporus Tyr. The series is described as follows: In vitro tyrosinase (Tyr) inhibition assay (L-Dopa to dopachrome). The series is classed as biochemical. On the procedure: as §4
Tyr inhibition assay was performed using Agaricus bisporus Tyr (EC1.14.18.1) according to Adhikari et al. (2008) with some modifications. The enzymatic reaction follows the catalytic conversion of L-Dopa to dopaquinone and the formation of dopachrome by measuring the absorbance at 475 nm. Briefly, Tyr (25 U/mL) was added to 50 mM phosphate buffer pH 6.5 and the tested compounds at 25, 50 and 100 μM (final concentrations, 1% DMSO). The enzymatic activity was triggered by the addition of L-dopa (25 mM). Kojic acid (1.4 mM, water) was included as positive control and 1% DMSO in water as negative control.

The test system of series [6] is Artemia salina nauplii. Set-up: method as in PMID 29936172. As to conditions: same concentrations (25 and 50 μM) and conditions; cited from earlier work.

T1 sequence (O42275 24-633): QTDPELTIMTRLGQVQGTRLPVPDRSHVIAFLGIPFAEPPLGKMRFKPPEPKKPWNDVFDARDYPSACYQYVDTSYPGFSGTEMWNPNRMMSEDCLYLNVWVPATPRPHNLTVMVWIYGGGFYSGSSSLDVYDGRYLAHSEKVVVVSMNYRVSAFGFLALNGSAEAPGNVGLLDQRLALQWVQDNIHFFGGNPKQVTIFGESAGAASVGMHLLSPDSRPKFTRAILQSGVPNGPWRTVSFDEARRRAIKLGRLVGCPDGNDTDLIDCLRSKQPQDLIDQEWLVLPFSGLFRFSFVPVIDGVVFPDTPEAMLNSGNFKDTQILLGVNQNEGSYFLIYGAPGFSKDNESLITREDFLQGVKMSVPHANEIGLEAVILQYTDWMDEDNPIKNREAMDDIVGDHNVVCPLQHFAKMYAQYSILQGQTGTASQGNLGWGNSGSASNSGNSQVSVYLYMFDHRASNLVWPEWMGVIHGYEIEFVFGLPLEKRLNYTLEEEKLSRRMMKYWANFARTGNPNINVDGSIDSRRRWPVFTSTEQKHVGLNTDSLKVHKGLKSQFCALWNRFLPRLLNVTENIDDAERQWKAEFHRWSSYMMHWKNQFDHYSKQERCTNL

Broadly, the LC50 is the concentration that kills 50% of the test population. On to `COc1cc(/C=C/C(=O)c2ccc(OCc3cn([C@@H]4O[C@H](COC(C)=O)[C@@H](OC(C)=O)[C@H](OC(C)=O)[C@H]4OC(C)=O)nn3)cc2O)cc(OC)c1OC` [7b, (2R,3R,4S,5R,6R)-2-(acetoxymethyl)-6-(4-((3-hydroxy-4-((E)-3-(3,4,5-trimethoxyphenyl)acryloyl)phenoxy)methyl)-1H-1,2,3-triazol-1-yl)tetrahydro-2H-pyran-3,4,5-triyl triacetate], for which, in series [1], the LC50 at 15 h was more than 200 µM. For the same compound, the EC50 in [2] (95% CI in cell) was 3.28 µM; in the series on Navicula sp. (240 h) it was 41.8 µM and 30.9 µg/mL. In the series with Navicula sp. (15 μM, Dunnett test p < 0.05), the “diatom growth inhibition screening” value is on record as “significant inhibitory activity”. Also, the AChE activity result in series [3] is given as “significantly induced”. For the same compound, the “mortality of Artemia salina nauplii” value in the series on Artemia salina nauplii [4] is listed as “less than 10%”.

Broadly, the melting point is the temperature of the solid-liquid transition. Compound `COCOc1ccc(C(=O)/C=C/c2cc(OC)c(OC)c(OC)c2)c(O)c1` yielded a melting point of 132 to 134 °C.

With `COc1cc(-c2cc(=O)c3c(O)cc(OCc4cn(CCO[C@@H]5O[C@H](COC(C)=O)[C@@H](OC(C)=O)[C@H](OC(C)=O)[C@H]5OC(C)=O)nn4)cc3o2)cc(OC)c1OC` [4b, (2R,3R,4S,5R,6R)-2-(acetoxymethyl)-6-(2-(4-(((5-hydroxy-4-oxo-2-(3,4,5-trimethoxyphenyl)-4H-chromen-7-yl)oxy)methyl)-1H-1,2,3-triazol-1-yl)ethoxy)tetrahydro-2H-pyran-3,4,5-triyl triacetate], the median lethal concentration (LC50) at 15 h in series [1] was more than 200 µM. Moreover, the values for the EC50 in series [2] (95% CI in cell) and in [2] were 48.2 µM and 38.6 µg/mL, respectively.

As to `C#CCOc1ccc(C(=O)/C=C/c2cc(OC)c(OC)c(OC)c2)c(O)c1` [6b], the median lethal concentration (LC50) at 15 h in series [1] is more than 200 µM. For the same compound, the values for the EC50 in series [2] (95% CI in cell) and in series [2] were 85.6 µM and 31.5 µg/mL, respectively. For the same compound, the “bacterial growth inhibition screening” value in series [5] is “significant inhibitory activity”.

In turn, `COc1cc(-c2cc(=O)c3c(O)cc(OCc4cn([C@@H]5O[C@H](COC(C)=O)[C@@H](OC(C)=O)[C@H](OC(C)=O)[C@H]5OC(C)=O)nn4)cc3o2)cc(OC)c1OC` had a melting point of 169 to 171 °C.

Consider `COc1cc(/C=C/C(=O)c2ccc(OCc3cn(CCO[C@H]4O[C@H](COC(C)=O)[C@@H](OC(C)=O)[C@H](OC(C)=O)[C@@H]4OC(C)=O)nn3)cc2O)cc(OC)c1OC` [8b, (2R,3R,4S,5S,6S)-2-(acetoxymethyl)-6-(2-(4-((3-hydroxy-4-((E)-3-(3,4,5-trimethoxyphenyl)acryloyl)phenoxy)methyl)-1H-1,2,3-triazol-1-yl)ethoxy)tetrahydro-2H-pyran-3,4,5-triyl triacetate], for which the LC50 at 15 h in series [1] was more than 200 µM. The EC50 turned out to be 53.9 µM in [2] (95% CI in cell) and 42.4 µg/mL in series [2].

Take `COc1ccc(/C=C/C(=O)c2ccc(O)cc2O)cc1OC` [11a]: in series [1], the LC50 at 15 h is more than 200 µM. Further, in series [2] (95% CI in cell), the EC50 was 18.1 µM. In addition, the “mortality of Artemia salina nauplii” value with Artemia salina nauplii [4] is “less than 10%”.

As to `COc1ccc(-c2cc(=O)c3c(O)cc(OCc4cn([C@@H]5O[C@H](COC(C)=O)[C@@H](OC(C)=O)[C@H](OC(C)=O)[C@H]5OC(C)=O)nn4)cc3o2)cc1OC`, the melting point lay within 143 to 145 °C.

Turning to `COc1ccc(-c2cc(=O)c3c(O)cc(OCc4cn(CCO[C@@H]5O[C@H](COC(C)=O)[C@@H](OC(C)=O)[C@H](OC(C)=O)[C@H]5OC(C)=O)nn4)cc3o2)cc1OC` [4a, (2R,3R,4S,5R,6R)-2-(acetoxymethyl)-6-(2-(4-(((2-(3,4-dimethoxyphenyl)-5-hydroxy-4-oxo-4H-chromen-7-yl)oxy)methyl)-1H-1,2,3-triazol-1-yl)ethoxy)tetrahydro-2H-pyran-3,4,5-triyl triacetate], the LC50 at 15 h in [1] was more than 200 µM. In addition, the results for the EC50 in [2] (95% CI in cell) and in [2] were 42.6 µM and 32.8 µg/mL, respectively.

Consider `COc1cc(-c2cc(=O)c3c(O)cc(O)cc3o2)cc(OC)c1OC` [1b], for which the LC50 at 15 h in series [1] is more than 200 µM. The EC50 in series [2] (95% CI in cell) was determined as 8.34 µM. In the series with Agaricus bisporus Tyr (100 µM), the “inhibition of Tyr” value is listed as 23.5%. Moreover, in the series on Agaricus bisporus Tyr (all the concentrations tested (25, 50 and 100 μM), versus negative control), the Tyr activity result is reported as “significantly decrease Tyr activity”. Besides, the “mortality of Artemia salina nauplii” value in the series with Artemia salina nauplii [4] is on record as “less than 10%”.

Regarding `C#CCOc1ccc(C(=O)/C=C/c2ccc(OC)c(OC)c2)c(O)c1` [6a], in series [1], the LC50 at 15 h was more than 200 µM. Moreover, the EC50 was 84.5 µM in series [2] (95% CI in cell) and 28.6 µg/mL in series [2]. In addition, the “bacterial growth inhibition screening” value in series [5] is “significant inhibitory activity”.

Take `N#Cc1c(-c2ccc(Cl)cc2)[nH]c(C(F)(F)F)c1Br` [ECONEA]: the “lethality to Artemia salina” value with Artemia salina nauplii [6] is listed as 100%.

Take `COc1ccc(/C=C/C(=O)c2ccc(OCc3cn(CCO[C@@H]4O[C@H](COC(C)=O)[C@@H](OC(C)=O)[C@H](OC(C)=O)[C@H]4OC(C)=O)nn3)cc2O)cc1OC` [8a, (2R,3R,4S,5R,6R)-2-(acetoxymethyl)-6-(2-(4-((4-((E)-3-(3,4-dimethoxyphenyl)acryloyl)-3-hydroxyphenoxy)methyl)-1H-1,2,3-triazol-1-yl)ethoxy)tetrahydro-2H-pyran-3,4,5-triyl triacetate]: in series [1], the median lethal concentration (LC50) at 15 h is more than 200 µM. In addition, the EC50 came to 35.8 µM in series [2] (95% CI in cell) and 27.1 µg/mL in [2].

On to `COc1cc(/C=C/C(=O)c2ccc(O)cc2O)cc(OC)c1OC` [11b], for which the 50% lethal concentration (LC50) at 15 h in [1] is more than 200 µM. Besides, the EC50 in [2] (95% CI in cell) is 9.64 µM. Moreover, the AChE activity result in series [3] is recorded as “significantly induced”. Besides, the “mortality of Artemia salina nauplii” value with Artemia salina nauplii [4] is reported as “less than 10%”.
